# Results as given in patent US9296698B2, “Amino heteroaryl compounds as beta-secretase modulators and methods of use” (Amgen Inc., priority 2009, dated 2016).
# Where two headings read alike, the source gives them in different places.
# Assays:
# [1] = molecular target: BACE 1 (Beta Secretase enzyme) (Homo sapiens, UniProt P56817); test: In vitro enzymatic BACE FRET assay; type: biochemical; design: BACE 1 FRET assay (uM): scale not given here
# Outline: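 BACE activity read by FRET: peptide substrate (50 nM) carrying fluorophore and quencher across the cleavage site, incubated one hour in 0.05 M acetate pH 4.2, 10% DMSO final, 100 uM genapol. Tris addition raises pH to neutrality to stop the reaction before fluorescence is read.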
# [2] = system: Aβ40 in conditioned medium of cells stably expressing Amyloid Precursor Protein (APP); test: In vitro BACE cell-based assay (HEK cell assay), Aβ40 sandwich ELISA; conditions: IC50 range symbols, Table 1, Aβ40, 24 h incubation, read-out: HEK cell assay
# Outline: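 Cells stably expressing APP received 10-point compound dilutions (top 100 μM or 10 μM; 0.1% DMSO) for 24 h. Secreted Aβ40 was quantified by sandwich ELISA (pAb40 capture, biotinylated 6E10 detection, europium time-resolved fluorescence). IC50 was derived from percent inhibition versus concentration.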
# [3] = IC50 range symbols, Table 1, read-out: BACE 1 FRET assay
# [4] = bound stated, read-out: IC50 value in the FRET BACE enzyme assay
# Sequence of BACE 1 (Beta Secretase enzyme) (P56817 46-501, species assumed): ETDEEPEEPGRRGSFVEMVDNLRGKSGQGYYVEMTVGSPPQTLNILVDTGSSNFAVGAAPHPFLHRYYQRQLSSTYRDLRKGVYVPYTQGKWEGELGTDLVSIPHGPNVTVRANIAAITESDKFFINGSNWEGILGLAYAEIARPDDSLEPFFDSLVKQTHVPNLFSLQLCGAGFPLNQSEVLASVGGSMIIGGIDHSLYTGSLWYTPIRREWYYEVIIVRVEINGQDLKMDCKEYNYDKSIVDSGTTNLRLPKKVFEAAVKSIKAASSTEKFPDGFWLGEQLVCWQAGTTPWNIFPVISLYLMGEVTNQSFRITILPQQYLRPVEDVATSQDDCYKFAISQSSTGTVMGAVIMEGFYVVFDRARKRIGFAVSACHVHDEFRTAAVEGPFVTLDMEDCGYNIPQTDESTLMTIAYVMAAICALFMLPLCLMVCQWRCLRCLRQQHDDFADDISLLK
Molecule,"IC50 [1, 3]","IC50 ([2]; Homo sapiens, HEK293, 24 h)","IC50 [1, 4]",IC50 [2],"BACE 1 FRET assay (uM) ([1]; IC50 range symbols, Table 1)"
"CC(Cc1cc2cc(-c3ncccc3CCN3CCCC3)ccc2nc1N)C(=O)NCCC(C)(C)C (stereo not drawn) [Example 125, 3-(2-amino-6-(3-(2-(pyrrolidin-1-yl)ethyl)pyridin-2-yl)quinolin-3-yl)-N-(3,3-dimethylbutyl)-2-methylpropanamide]",< 500 nM,< 500 nM,,,
"CC(=O)c1ccccc1-c1ccc2nc(N)c(CC(C)C(=O)NC3CCOC(C)(C)C3)cc2c1 (stereo not drawn) [Example 143, 3-(6-(2-acetylphenyl)-2-amino-3-quinolinyl)-N-(2,2-dimethyltetrahydro-2H-pyran-4-yl)-2-methylpropanamide]",< 500 nM,< 500 nM,,,
"Cc1cccnc1-c1cc2cc(CC(C)C(=O)NCCC(C)(C)C)c(N)nc2cc1F (stereo not drawn) [Example 98, 3-(2-amino-7-fluoro-6-(3-methyl-2-pyridinyl)-3-quinolinyl)-N-(3,3-dimethylbutyl)-2-methylpropanamide]",< 500 nM,< 500 nM,< 50 nM,,
"Cc1ccccc1-c1ccc2nc(N)c(CCC(=O)NCc3ncco3)cc2c1 [Example 67, 3-(2-amino-6-o-tolylquinolin-3-yl)-N-(oxazol-2-ylmethyl)propanamide]",< 500 nM,1000 to 5000 nM,,,
"C#CC1CC(NC(=O)[C@H](C)Cc2cc3cc(-c4ccccc4C)ccc3nc2N)CCO1 (stereo partly drawn) [Example 160, (R)-3-(2-amino-6-o-tolylquinolin-3-yl)-N-(cis-2-ethynyltetrahydro-2H-pyran-4-yl)-2-methylpropanamide]",< 500 nM,< 500 nM,,,
"CCn1ccc(CNC(=O)CCc2cc3cc(-c4ccccc4C)ccc3nc2N)n1 [Example 59, 3-(2-amino-6-o-tolylquinolin-3-yl)-N-((1-ethyl-1H-pyrazol-3-yl)methyl)propanamide]",< 500 nM,1000 to 5000 nM,,,
3-(3-amino-7-o-tolylnaphthalen-2-yl)-N-(pyridin-3-ylmethyl)propanamide [Example 37],< 500 nM,,,1000 to 5000 nM,
"Cc1cccnc1-c1ccc2nc(N)c(CC(C)C(=O)NCC3CCOCC3)cc2c1 (stereo not drawn) [Example 88, 3-(2-amino-6-(3-methylpyridin-2-yl)quinolin-3-yl)-2-methyl-N-((tetrahydro-2H-pyran-4-yl)methyl)propanamide]",< 500 nM,500 to 1000 nM,,,
"Cc1ccncc1-c1ccc2nc(N)c(CCC(=O)NCC3CCCCC3)cc2c1 [Example 46, 3-(2-amino-6-(4-methylpyridin-3-yl)quinolin-3-yl)-N-(cyclohexylmethyl)propanamide]",1000 to 5000 nM,> 5000 nM,,,
"Nc1nc2ccc(-c3cccnc3)cc2cc1CCC(=O)NCC1CCCCC1 [Example 34, 3-(2-amino-6-(pyridin-3-yl)quinolin-3-yl)-N-(cyclohexylmethyl)propanamide]",,1000 to 5000 nM,,,_++
"CC(Cc1cc2cc(-c3cccc(Cl)c3Cl)ccc2nc1N)C(=O)NC1CCOC(C)(C)C1 (stereo not drawn) [Example 159, 3-(2-amino-6-(2,3-dichlorophenyl)quinolin-3-yl)-N-(2,2-dimethyltetrahydro-2H-pyran-4-yl)-2-methylpropanamide]",< 500 nM,< 500 nM,,,
N-(4-fluoro-4-methylpentan-2-yl)-2-methyl-3-(6-(3-methylpyridin-2-yl)quinolin-3-yl)propanamide [Example 100],500 to 1000 nM,,,1000 to 5000 nM,
"Cc1ccc(NC(=O)CCc2cc3cc(-c4ccccc4C)ccc3nc2N)c(F)c1 [Example 53, 3-(2-amino-6-o-tolylquinolin-3-yl)-N-(2-fluoro-4-methylphenyl)propanamide]",1000 to 5000 nM,1000 to 5000 nM,,,
"Cc1cccnc1-c1ccc2nc(N)c(CC(C)C(=O)NCCC(F)(F)F)cc2c1 (stereo not drawn) [Example 112, 3-(2-amino-6-(3-methylpyridin-2-yl)quinolin-3-yl)-2-methyl-N-(3,3,3-trifluoropropyl)propanamide]",< 500 nM,500 to 1000 nM,,,
"CC(Cc1cc2cc(-c3ncccc3Cl)ccc2nc1N)C(=O)NCCC(F)(F)F (stereo not drawn) [Example 116, 3-(2-amino-6-(3-chloropyridin-2-yl)quinolin-3-yl)-2-methyl-N-(3,3,3-trifluoropropyl)propanamide]",1000 to 5000 nM,> 5000 nM,,,
"COCC1CC1c1ccc2nc(N)c(CC(C)C(=O)NCCC(C)(C)C)cc2c1 (stereo not drawn) [Example 119, 3-(2-amino-6-(2-(methoxymethyl)cyclopropyl)quinolin-3-yl)-N-(3,3-dimethylbutyl)-2-methylpropanamide]",> 5000 nM,> 5000 nM,,,
"COC(Cc1cc2cc(-c3ccccc3C)ccc2nc1N)C(=O)NCC1CCCCC1 (stereo not drawn) [Example 71, 3-(2-amino-6-o-tolylquinolin-3-yl)-N-(cyclohexylmethyl)-2-methoxypropanamide]",< 500 nM,1000 to 5000 nM,,,
"Cc1ccccc1-c1ccc2nc(N)c(CCCNC(=O)C3CCCCC3)cc2c1 [Example 48, N-(3-(2-amino-6-o-tolylquinolin-3-yl)propyl)cyclohexanecarboxamide]",< 500 nM,1000 to 5000 nM,,,

Molecule,"IC50 [1, 3]","IC50 ([2]; Homo sapiens, HEK293, 24 h)","IC50 [1, 4]",IC50 [2],"BACE 1 FRET assay (uM) ([1]; IC50 range symbols, Table 1)"
"CCc1ccccc1-c1ccc2nc(N)c(CCC(=O)NCC3CCCCC3)cc2c1 [Example 49, 3-(2-amino-6-(2-ethylphenyl)quinolin-3-yl)-N-(cyclohexylmethyl)propanamide]",< 500 nM,1000 to 5000 nM,,,
N-(2-methoxybenzyl)-3-(3-amino-7-o-tolylnaphthalen-2-yl)propanamide [Example 61],1000 to 5000 nM,,,> 5000 nM,
"Cc1cccnc1-c1ccc2nc(N)c(CC(C)C(=O)NC[C@@H]3CCCOC3)cc2c1 (stereo partly drawn) [Example 89, 3-(2-amino-6-(3-methylpyridin-2-yl)quinolin-3-yl)-2-methyl-N-(((S)-tetrahydro-2H-pyran-3-yl)methyl)propanamide]",< 500 nM,500 to 1000 nM,,,
"Cc1ccccc1-c1ccc2nc(N)c(C[C@@H](C)C(=O)NC3CCOC(C)C3)cc2c1 (stereo partly drawn) [Example 158, (2R)-3-(2-amino-6-o-tolylquinolin-3-yl)-2-methyl-N-(2-methyltetrahydro-2H-pyran-4-yl)propanamide]",< 500 nM,< 500 nM,,,
"Cc1cccnc1-c1ccc2nc(N)c(CC(C)C(=O)NCCC3CCCO3)cc2c1 (stereo not drawn) [Example 113, 3-(2-amino-6-(3-methylpyridin-2-yl)quinolin-3-yl)-2-methyl-N-(2-(tetrahydrofuran-2-yl)ethyl)propanamide]",500 to 1000 nM,1000 to 5000 nM,,,
"Cc1ccccc1-c1cc2cc(CCC(=O)NCC3CCCCC3)c(N)nc2cc1F [Example 96, 3-(2-amino-7-fluoro-6-(2-methylphenyl)-3-quinolinyl)-N-(cyclohexylmethyl)propanamide]",< 500 nM,1000 to 5000 nM,< 50 nM,,
"Cc1cccnc1-c1ccc2nc(N)c(CC(C)C(=O)NCC3CCC(F)(F)CC3)cc2c1 (stereo not drawn) [Example 117, 3-(2-amino-6-(3-methylpyridin-2-yl)quinolin-3-yl)-N-((4,4-difluorocyclohexyl)methyl)-2-methylpropanamide]",< 500 nM,500 to 1000 nM,,,
"Cc1ncccc1-c1ccc2nc(N)c(CCC(=O)NCC3CCCCC3)cc2c1 [Example 38, 3-(2-amino-6-(2-methylpyridin-3-yl)quinolin-3-yl)-N-(cyclohexylmethyl)propanamide]",500 to 1000 nM,> 5000 nM,,,
"Cc1ccccc1-c1ccc2nc(N)c(CC(C)C(=O)N[C@H](C)C3CCCCC3)cc2c1 (stereo partly drawn) [Example 47, 3-(2-amino-6-o-tolylquinolin-3-yl)-N-((R)-1-cyclohexylethyl)-2-methylpropanamide]",< 500 nM,1000 to 5000 nM,,,
"Cc1cccnc1-c1ccc2nc(N)c(CCC(=O)N[C@H](C)c3cccnc3)cc2c1 [Example 132, (R)-3-(2-amino-6-(3-methylpyridin-2-yl)quinolin-3-yl)-N-(1-(pyridin-3-yl)ethyl)propanamide]",1000 to 5000 nM,> 5000 nM,,,
3-(3-amino-7-o-tolylnaphthalen-2-yl)-N-(pyridin-2-ylmethyl)propanamide [Example 36],< 500 nM,,,1000 to 5000 nM,
3-(2-amino-6-o-tolylquinolin-3-yl)-N-(tetrahydro-2H-pyran-4-yl)propanamide [Example 16],1000 to 5000 nM,,,1000 to 5000 nM,
"3-(2-amino-6-(2-methyl-6-(1-pyrrolidinylcarbonyl)phenyl)-3-quinolinyl)-N-(2,2-dimethyltetrahydro-2H-pyran-4-yl)-2-methylpropanamide [Example 145]",< 500 nM,,,< 500 nM,
"Cc1ccccc1-c1ccc2nc(N)c(CCC(=O)N3CCC(F)(F)C3)cc2c1 [Example 134, 3-(2-amino-6-o-tolylquinolin-3-yl)-1-(3,3-difluoropyrrolidin-1-yl)propan-1-one]",1000 to 5000 nM,> 5000 nM,,,
3-(3-amino-7-o-tolylnaphthalen-2-yl)-N-((S)-1-cyclohexylethyl)propanamide [Example 35],< 500 nM,,,> 5000 nM,
3-(3-amino-7-o-tolylnaphthalen-2-yl)-N-(1-(2-methoxyphenyl)ethyl)-2-methylpropanamide [Example 70],< 500 nM,,,1000 to 5000 nM,
"COCCNC(=O)CCc1cc2cc(-c3ccccc3C)ccc2nc1N [Example 18, 3-(2-amino-6-o-tolylquinolin-3-yl)-N-(2-methoxyethyl)propanamide]",< 500 nM,> 5000 nM,,,
